Data from patent US9730940B2, “Purine inhibitors of human phosphatidylinositol 3-kinase delta” (priority 2012, dated 2017).

These compounds were tested against PI3K-alpha (Homo sapiens (Human), UniProt P42336) (assay: HTRF PI3K biochemical assay, alpha isoform). Settings: ratio PI3K-alpha IC50 value/PI3K-delta IC50 value.
Chain of PI3K-alpha (P42336 whole entry, looked up, canonical isoform): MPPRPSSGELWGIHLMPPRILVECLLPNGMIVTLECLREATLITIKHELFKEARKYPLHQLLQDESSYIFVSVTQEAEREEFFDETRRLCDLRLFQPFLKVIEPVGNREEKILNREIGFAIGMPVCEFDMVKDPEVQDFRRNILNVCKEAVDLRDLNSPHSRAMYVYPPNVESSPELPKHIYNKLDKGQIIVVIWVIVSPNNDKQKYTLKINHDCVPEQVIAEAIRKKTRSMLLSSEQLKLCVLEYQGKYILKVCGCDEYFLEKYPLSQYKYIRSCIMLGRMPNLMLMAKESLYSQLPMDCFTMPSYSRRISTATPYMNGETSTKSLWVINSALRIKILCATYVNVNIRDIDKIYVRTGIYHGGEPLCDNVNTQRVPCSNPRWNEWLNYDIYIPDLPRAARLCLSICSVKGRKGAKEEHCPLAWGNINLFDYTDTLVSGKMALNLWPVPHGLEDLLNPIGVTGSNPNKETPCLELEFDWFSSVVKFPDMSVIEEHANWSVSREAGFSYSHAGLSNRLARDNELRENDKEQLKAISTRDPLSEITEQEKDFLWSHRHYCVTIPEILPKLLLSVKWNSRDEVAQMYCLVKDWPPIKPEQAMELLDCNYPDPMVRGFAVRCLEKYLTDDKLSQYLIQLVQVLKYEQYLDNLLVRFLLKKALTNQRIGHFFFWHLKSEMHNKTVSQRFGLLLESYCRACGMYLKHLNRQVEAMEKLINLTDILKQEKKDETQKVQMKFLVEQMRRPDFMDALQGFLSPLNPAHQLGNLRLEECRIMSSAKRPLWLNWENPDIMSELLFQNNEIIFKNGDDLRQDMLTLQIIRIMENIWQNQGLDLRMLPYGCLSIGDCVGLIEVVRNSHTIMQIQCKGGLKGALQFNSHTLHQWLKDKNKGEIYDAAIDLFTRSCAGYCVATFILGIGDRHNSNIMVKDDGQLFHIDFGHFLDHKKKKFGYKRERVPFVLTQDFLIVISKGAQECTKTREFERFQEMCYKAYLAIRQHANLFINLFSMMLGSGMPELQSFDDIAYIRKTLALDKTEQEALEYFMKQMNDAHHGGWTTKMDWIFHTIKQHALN
Chain of PI3K-alpha (P27986 whole entry partner, looked up, canonical isoform): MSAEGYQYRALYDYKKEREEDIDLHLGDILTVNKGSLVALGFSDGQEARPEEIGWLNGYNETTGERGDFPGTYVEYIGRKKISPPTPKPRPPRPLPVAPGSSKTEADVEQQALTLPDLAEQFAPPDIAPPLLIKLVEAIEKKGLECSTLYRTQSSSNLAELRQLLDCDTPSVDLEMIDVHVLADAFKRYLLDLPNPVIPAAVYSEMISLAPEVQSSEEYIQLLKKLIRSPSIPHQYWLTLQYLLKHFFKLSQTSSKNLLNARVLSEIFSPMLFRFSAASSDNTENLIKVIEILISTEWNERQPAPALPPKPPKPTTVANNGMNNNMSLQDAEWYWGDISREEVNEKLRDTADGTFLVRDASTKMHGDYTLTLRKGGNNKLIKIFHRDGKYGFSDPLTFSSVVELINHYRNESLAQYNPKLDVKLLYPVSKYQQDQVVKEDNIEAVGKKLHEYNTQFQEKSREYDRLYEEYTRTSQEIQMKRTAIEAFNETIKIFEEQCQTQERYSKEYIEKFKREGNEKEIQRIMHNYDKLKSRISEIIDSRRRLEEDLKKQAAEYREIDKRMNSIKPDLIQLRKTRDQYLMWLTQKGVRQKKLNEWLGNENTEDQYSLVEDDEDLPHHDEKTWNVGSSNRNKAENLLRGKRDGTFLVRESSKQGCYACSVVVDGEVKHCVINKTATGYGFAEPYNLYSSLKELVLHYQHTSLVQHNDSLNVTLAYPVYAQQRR

Row | Compound | Relative Selectivity versus PI3Kalpha
1 | CCn1ncc(-c2nc3c(O[C@H]4CCN(c5ncnc6ccsc56)C4)ncnc3n2C)c1C [Compound 7-4, 8-(1-ethyl-5-methyl-1H-pyrazol-4-yl)-9-methyl-6-{[(3S)-1-thieno[3,2-d]pyrimidin-4-ylpyrrolidin-3-yl]oxy}-9H-purine] | >10
2 | CCN(C)C(=O)N1CC[C@H](Oc2ncnc3c2nc(-c2cnc(C)nc2)n3CC)C1 [Compound 5-9, (3S)-N-ethyl-3-{[9-ethyl-8-(2-methylpyrimidin-5-yl)-9H-purin-6-yl]oxy}-N-methylpyrrolidine-1-carboxamide] | >10
3 | CCn1ncc(-c2nc3c(O[C@H]4CCN(C(=O)C5CCOC(C)(C)C5)C4)ncnc3n2C)c1C (stereo partly drawn) [Compound 2-24, 6-({(3S)-1-[(2,2-dimethyltetrahydro-2H-pyran-4-yl)carbonyl]pyrrolidin-3-yl}oxy)-8-(1-ethyl-5-methyl-1H-pyrazol-4-yl)-9-methyl-9H-purine] | >10
4 | CCn1ncc(-c2nc3c(O[C@H]4CCNC4)ncnc3n2C)c1C [Compound 1-2, 8-(1-ethyl-5-methyl-1H-pyrazol-4-yl)-9-methyl-6-[(3S)-pyrrolidin-3-yloxy]-9H-purine] | >5
5 | CCn1c(-c2cnc(C)nc2)nc2c(O[C@H]3CCN(C(=O)N4CC(F)C4)C3)ncnc21 [Compound 5-27, 9-ethyl-6-({(3S)-1-[(3-fluoroazetidin-1-yl)carbonyl]pyrrolidin-3-yl}oxy)-8-(2-methylpyrimidin-5-yl)-9H-purine] | >10
6 | CCNC(=O)N1CC[C@H](Oc2ncnc3c2nc(-c2cnc(C)nc2)n3CC)C1 [Compound 5-8, (3S)-N-ethyl-3-{[9-ethyl-8-(2-methylpyrimidin-5-yl)-9H-purin-6-yl]oxy}pyrrolidine-1-carboxamide] | >10
7 | Cn1c(-c2cnn3cccnc23)nc2c(O[C@H]3CCN(C(=O)OC(C)(C)C)C3)ncnc21 [Compound 1-22, tert-butyl (3S)-3-[(9-methyl-8-pyrazolo[1,5-a]pyrimidin-3-yl-9H-purin-6-yl)oxy]pyrrolidine-1-carboxylate] | >10
8 | CCn1ncc(-c2nc3c(O[C@H]4CCN(C(=O)c5nccn5C)C4)ncnc3n2C)c1C [Compound 2-39, 8-(1-ethyl-5-methyl-1H-pyrazol-4-yl)-9-methyl-6-({(3S)-1-[(1-methyl-1H-imidazol-2-yl)carbonyl]pyrrolidin-3-yl}oxy)-9H-purine] | >10
9 | CCn1ncc(-c2nc3c(O[C@H]4CCN(C(=O)c5coc(C)n5)C4)ncnc3n2C)c1C [Compound 2-27, 8-(1-ethyl-5-methyl-1H-pyrazol-4-yl)-9-methyl-6-({(3S)-1-[(2-methyl-1,3-oxazol-4-yl)carbonyl]pyrrolidin-3-yl}oxy)-9H-purine] | >10
10 | CCn1c(-c2cnc(C)nc2)nc2c(O[C@H]3CCN(C(=O)C4CC4C(F)F)C3)ncnc21 (single isomer, unassigned) [Compound 2-125, 6-{[(3S)-1-{(1S,2S)- or (1R,2R)-[2-(difluoromethyl)cyclopropyl]carbonyl}pyrrolidin-3-yl]oxy}-9-ethyl-8-(2-methylpyrimidin-5-yl)-9H-purine] | >10
11 | CCn1c(-c2cnc(C)nc2)nc2c(O[C@H]3CCN(C(=O)[C@@H]4CN5CC[C@H]4C5)C3)ncnc21 [Compound 2-104, 6-({(3S)-1-[(3S,4R)-1-azabicyclo[2.2.1]hept-3-ylcarbonyl]pyrrolidin-3-yl}oxy)-9-ethyl-8-(2-methylpyrimidin-5-yl)-9H-purine] | >10
12 | CCC(=O)N1CC[C@H](Oc2ncnc3c2nc(-c2cnc(C)nc2)n3CC)C1 [Compound 2-25, 9-ethyl-8-(2-methylpyrimidin-5-yl)-6-{[(3S)-1-propanoylpyrrolidin-3-yl]oxy}-9H-purine] | >10
13 | Cn1c(-c2ccc3[nH]ncc3c2)nc2c(O[C@H]3CCN(C(=O)OC(C)(C)C)C3)ncnc21 [Compound 1-29, tert-butyl (3S)-3-{[8-(1H-indazol-5-yl)-9-methyl-9H-purin-6-yl]oxy}pyrrolidine-1-carboxylate] | >10
14 | CCn1c(-c2cnc(C)nc2)nc2c(OC3CN(C(=O)C4CC4)CC3F)ncnc21 (single isomer, unassigned) [Compound 2-138, 6-{[1-(cyclopropylcarbonyl)-(3S,4S)- or (3R,4R)-4-fluoropyrrolidin-3-yl]oxy}-9-ethyl-8-(2-methylpyrimidin-5-yl)-9H-purine] | >10
15 | CCn1c(-c2cnc(C)nc2)nc2c(O[C@H]3CCN(C(=O)C4CC4CO)C3)ncnc21 (single isomer, unassigned) [Compound 2-131, (1S,2S)- or (1R,2R)-{[(3S)-3-{[9-ethyl-8-(2-methylpyrimidin-5-yl)-9H-purin-6-yl]oxy}pyrrolidin-1-yl]carbonyl}cyclopropyl)methanol] | >10
16 | CCn1c(-c2cnc(C(C)(C)C)s2)nc2c(O[C@H]3CCN(C(=O)OC(C)(C)C)C3)ncnc21 [Compound 1-35, tert-butyl (3S)-3-{[8-(2-tert-butyl-1,3-thiazol-5-yl)-9-ethyl-9H-purin-6-yl]oxy}pyrrolidine-1-carboxylate] | >10
17 | CCn1c(-c2cnc(OC)c(F)c2)nc2c(O[C@H]3CCN(C(=O)c4cncn4C)C3)ncnc21 [Compound 3-58, 9-ethyl-8-(5-fluoro-6-methoxypyridin-3-yl)-6-({(3S)-1-[(1-methyl-1H-imidazol-5-yl)carbonyl]pyrrolidin-3-yl}oxy)-9H-purine] | >10
18 | CCn1c(-c2cnc(C)nc2)nc2c(O[C@H]3CCN(C(=O)C4CC(C)C4)C3)ncnc21 (stereo partly drawn) [Compound 2-129, 9-ethyl-6-({(3S)-1-[(3-methylcyclobutyl)carbonyl]pyrrolidin-3-yl}oxy)-8-(2-methylpyrimidin-5-yl)-9H-purine] | >10
19 | CCn1ncc(-c2nc3c(O[C@H]4CCN(C(=O)C5CCc6nnnn65)C4)ncnc3n2C)c1C (stereo partly drawn) [Compound 2-84, 6-{[(3S)-1-(6,7-dihydro-5H-pyrrolo[1,2-d]tetrazol-5-ylcarbonyl)pyrrolidin-3-yl]oxy}-8-(1-ethyl-5-methyl-1H-pyrazol-4-yl)-9-methyl-9H-purine (non-preferred name)] | >10
20 | COC1CC(c2nc3c(OC4CCN(C(=O)OC(C)(C)C)C4)ncnc3n2C)C1 [Compound 1-31, (S)-tert-butyl 3-((8-(3-methoxycyclobutyl)-9-methyl-9H-purin-6-yl)oxy)pyrrolidine-1-carboxylate] | >5
21 | CCn1ncc(-c2nc3c(O[C@H]4CCN(C(=O)c5oc(C)nc5C)C4)ncnc3n2C)c1C [Compound 2-58, 6-({(3S)-1-[(2,4-dimethyl-1,3-oxazol-5-yl)carbonyl]pyrrolidin-3-yl}oxy)-8-(1-ethyl-5-methyl-1H-pyrazol-4-yl)-9-methyl-9H-purine] | >10
22 | CCC(=O)N1CC[C@H](Oc2ncnc3c2nc(Oc2cnc(C)nc2)n3C)C1 [Compound 12-3, 9-methyl-8-[(2-methylpyrimidin-5-yl)oxy]-6-{[(3S)-1-propanoylpyrrolidin-3-yl]oxy}-9H-purine] | >10
23 | CCC(=O)N1CC[C@H](S(=O)(=O)c2ncnc3c2nc(-c2cnn(CC)c2C)n3C)C1 [Compound 10-6, (S)-1-(3-((8-(1-ethyl-5-methyl-1H-pyrazol-4-yl)-9-methyl-9H-purin-6-yl)sulfonyl)pyrrolidin-1-yl)propan-1-one] | 5
24 | CCn1c(-c2ccc(OC)cn2)nc2c(O[C@H]3CCN(C(=O)C4CC4)C3)ncnc21 [Compound 3-48, 6-{[(3S)-1-(cyclopropylcarbonyl)pyrrolidin-3-yl]oxy}-9-ethyl-8-(5-methoxypyridin-2-yl)-9H-purine] | >10
25 | CCn1c(-c2cnc(C)nc2)nc2c(O[C@H]3CCN(C(=O)N4CC(F)(F)C4)C3)ncnc21 [Compound 5-14, 6-{[(3S)-1-[(3,3-difluoroazetidin-1-yl)carbonyl]pyrrolidin-3-yl}oxy)-9-ethyl-8-(2-methylpyrimidin-5-yl)-9H-purine] | >10
26 | CCn1ncc(-c2nc3c(O[C@H]4CCN(C(=O)OC(C)(C)C)C4)ncnc3n2C)c1C [Compound 1-1, tert-butyl (3S)-3-{[8-(1-ethyl-5-methyl-1H-pyrazol-4-yl)-9-methyl-9H-purin-6-yl]oxy}pyrrolidine-1-carboxylate] | >10
27 | CCn1c(-c2cnc(C)nc2)nc2c(OC3CCC(NC(=O)C4CCOCC4)C3)ncnc21 (single isomer, unassigned) [Compound 9-9, N-[(1S,3S) or (1R,3R)]-(3-{[9-ethyl-8-(2-methylpyrimidin-5-yl)-9H-purin-6-yl]oxy}cyclopentyl)tetrahydro-2H-pyran-4-carboxamide] | >10
28 | CCn1ncc(-c2nc3c(O[C@H]4CCN(C(=O)c5ccnn5C)C4)ncnc3n2C)c1C [Compound 2-36, 8-(1-ethyl-5-methyl-1H-pyrazol-4-yl)-9-methyl-6-({(3S)-1-[(1-methyl-1H-pyrazol-5-yl)carbonyl]pyrrolidin-3-yl}oxy)-9H-purine] | >10
29 | CCC(=O)N1CC[C@H](Oc2ncnc3[nH]c(-c4cnn(CC)c4C)nc23)C1 [Compound 3-13, 8-(1-ethyl-5-methyl-1H-pyrazol-4-yl)-6-{[(3S)-1-propanoylpyrrolidin-3-yl]oxy}-9H-purine] | >10
30 | CCn1ncc(-c2nc3c(S[C@H]4CCN(c5ccncn5)C4)ncnc3n2C)c1C [Compound 10-12, (S)-8-(1-ethyl-5-methyl-1H-pyrazol-4-yl)-9-methyl-6-((1-(pyrimidin-4-yl)pyrrolidin-3-yl)thio)-9H-purine] | >10
